The nature of data set [1]: Oxytocin stability: LC/MS assay content recovered after TSI experiments. Format: physicochemical. As to conditions: all TSI stages, capsules and inhalation devices, after spray drying at 70° C. outlet. The method, then: All five capsules were activated into the same TSI. The used capsules and the inhalers were then washed with Milli-Q water into a 100 mL volumetric flask and made up to volume. This was called the ‘residual’ stage. The parts that made up Stage 1 (parts A, B, C and D) were washed into a 200 mL volumetric flask and the parts that made up Stage 2 (parts E, F, G and H) were washed into a 50 mL volumetric flask with Milli-Q water and called ‘stage 1’ and ‘stage 2’ respectively. The amounts of oxytocin in each stage of the TSI were determined by LC/MS assay. The fine particle fraction (FPF) was calculated as the amount of powder that had reached stage 2 of the TSI apparatus divided by total amount of drug that was assayed. This test was the most important measure as it can determine whether a powder containing oxytocin can be formulated with suitable aerosol deposition, and consequent absorption from the lung.
Peptides can potentially be denatured due to extreme heat. From the tests that were conducted in this study, the only indication as to oxytocin stability was the LC/MS assay content following the TSI experiments.

Data set [2] concerns uterine contraction (uterine EMG activity). The data set can be described thus: In vivo uterine EMG activity after oxytocin delivery in post-partum ewes (Example 5). As to conditions: for delay from oxytocin administration to uterine contractile response (first EMG burst): post-partum ewes, n=5, average. The arrangement: species or system sheep. The source says: On day 135 gestational age, pregnant ewes (n=5) were anaesthetised with thiopentone in preparation for surgery. Isuflorane (2.5% in oxygen) was used to maintain anaesthesia and depomycin, procaine penicillin and dihydrostreptomycin were given for pain relief and to reduce the risk of infection. Each ewe was shaved and a 10 cm incision was made in the abdominal skin at the midline below the navel to expose the uterine wall, with care taken to avoid large blood vessels.
Three sterile stainless steel wires for measuring electromyographical (EMG) activity (0.07 mm diameter, inside a 2 mm catheter) were embedded in the smooth muscle layer of the myometrium surrounding the womb and held there by two stitches. The electrodes were passed through a catheter and out of the ewe via a small incision (2 cm) through the right flank. A catheter was inserted in the right jugular to allow for blood samples and to induce labour. Ewes were returned to metabolic cages and given 3-5 days to recover from surgery.
Labour was induced with two 5 ml intravenous injections of dexamethasone (consisting of 5 mg of dexamethasone phosphate and 10 mg of dexamethasone phenylpropionate) 24 hours apart. Labour occurred 54±2 hours after the first dexamethasone injection.
Oxytocin administrations, as detailed above, were performed within 15 hours of delivery. Each sheep received an intra-tracheal dose of dry powder oxytocin formulation, an intra-tracheal instillation of oxytocin in solution and an intramuscular injection of oxytocin. There was at least a one and a half hour washout period between each treatment.
For intra-tracheal administration, an endoscope was passed through the nasal passage into the trachea and positioned near the first bronchial bifurcation, where either a 1 mL aliquot of oxytocin in solution (10 IU) was released or 10 mg (average) of dry powder was delivered through a modified PennCentury powder delivery device.
The dry powder formulation comprised a spray dried composition, as described in example 1. This powder contained 13 units of oxytocin per mg by mass, co-spray dried with equal proportions by mass of mannitol, glycine and leucine.
During this procedure, bronchoscope video images were captured using a Linvatec IM3301 Pal Video Camera attached to an endoscope (Pentax FG-16X), which was saved as a digital file onto a computer using Video Capture Software.
A cyberamp 380 in conjunction with MACLAB hardware (400 Hz Sample rate) and Chart 4 software (10V Input range) was used to display and record action potential originating from smooth muscle cells within the uterus. The cyberamp 380 used the AI401probe with positive input set at AC and negative input set at Ground. The AC cut off was 10 Hz and the prefilter gain set at 100 mV. The low pass filter was set at 300 Hz, the notch filter set to off, the output gain set to 5 and the total gain left at 500. Two way repeated measure ANOVA was performed to determine the statistical significance of our data.

[3] abbreviates: pulmonary versus IM delivery and post-partum activity.

For the molecule `CC[C@H](C)[C@@H]1NC(=O)[C@H](Cc2ccc(O)cc2)NC(=O)[C@@H](N)CSSC[C@@H](C(=O)N2CCC[C@H]2C(=O)N[C@@H](CC(C)C)C(=O)NCC(N)=O)NC(=O)[C@H](CC(N)=O)NC(=O)[C@H](CCC(N)=O)NC1=O` [oxytocin], the “oxytocin recovered of the initial capsule's dose” value in data set [1] is recorded as 90.23±5.41%. Moreover, in data set [2] (IM compared to airway delivery and normal post-partum activity), the “total duration of EMG activity” value is “significantly longer”. Also, the “delay from oxytocin administration to uterine contractile response (first EMG burst)” value is reported as “approximately 250 seconds” in data set [2] (IM delivery) and “faster time of onset” in data set [2] (pulmonary (intra-tracheal) delivery). In data set [2] (setting [3]), the “length of the initial burst of EMG activity” value is “No differences”. The “number of bursts over the first 30 minutes following the initial burst” value in data set [2] (setting [3]) is “nor was there a difference”.

The record behind these values is patent US12186361B2, “Method and formulation for inhalation” (Monash University, priority 2011, dated 2025).
